Earlier results in EP1691200A1, “The use of BNP-type peptides and ANP-type peptides for assessing the risk of suffering from a cardiovascular complication as a consequence of volume overload” (F. HOFFMANN-LA ROCHE AG, priority 2005, dated 2006).

CS(=O)(=O)c1ccc(C2=C(c3ccccc3)C(=O)OC2)cc1 [rofecoxib]
additional cardiovascular incidents (myocardial infarction, stroke) (25 mg rofecoxib compared with a placebo, after 18 months of follow-up): 16 per 1,000 treated patients
blood pressure levels (25 mg rofecoxib compared with a placebo, early post-observation phase): higher blood pressure levels
rise in the rate of serious thromboembolic incidents (APPROVE study, patients without any recognisable cardiovascular risk, led to premature discontinuation): 3.9 times
